Values joined by “and” are separate entries in the source; they are usually repeats but may differ in a detail not shown here. Equal values may be shown once.

For series [1], the system named is leucémie P 388. The experiment in a line: animal or person. Type of series: in vivo, souris hybrides CDF 1. Particulars: for Nombre de survivants: survivors at J 40; for Variation pondérale en g: in vivo, ip. From the text: (§1) L'activité antitumorale a été testée in vivo sur différentes tumeurs selon le protocole général suivant:
(§2) Toutes les souris mâles ou femelles sont inoculées par voie intrapéritonéale au jour Jo avec une quantité déterminée de cellules tumorales viables, variable selon la tumeur.
(§3) Elles sont ensuite réparties en différents lots. Chaque lot correspondant aux animaux traités par le produit à tester à une dose déterminée est composé de 10 souris. Dans ce cas, le produit à tester est dissous dans l'eau distillée et il est administré, pendant n jours (J₁-Jn) variables selon le protocole choisi, par voie intrapéritonéale à raison de 0,1 ml par 10 g de poids des souris traitées, les doses du produit administré étant précisées dans les tableaux ci-dessous.
(§4) Le lot "contrôle négatif", correspondant aux animaux qui ne sont pas traités par un produit, comprend 2 √N animaux, N étant égal au nombre total de souris traitées par un produit.
(§5) Enfin, tous les essais sont conduits parallèlement à l'étude d'un lot appelé "contrôle positif" de 10 animaux qui est traité par une molécule active, variable selon le protocole choisi, dans les mêmes conditions que les lots traités par le produit à tester, afin de valider l'essai.
(§6) L'activité antitumorale est évaluée en considé-rant l'augmentation du temps de survie des animaux traités par rapport à celui des animaux du lot "contrôle négatif" selon la formule : [formula]
(§7) Un composé est considéré comme étant actif lorsque la valeur du rapport T/C est égale ou supérieure à 125 % selon le protocole retenu. Il est toxique lorsque cette valeur est égale ou inférieure à 85 %. Le produit est également considéré comme toxique lorsque la variation pondérale, exprimée en grammes et calculée par la formule : Poids moyen du lot mesuré au jour 5 -poids moyen du même lot au jour 1 est égale ou inférieure à - 4 g.
a) Test de la leucémie P 388 (GERAN et al., Cancer Chemother, 1972, 2, 07-57).
Les essais sont effectués avec des souris hybrides CDF 1 inoculées par voie intrapéritonéale avec 10⁶ cellules leucémiques de la lignée P 388. Le composé à tester est administré pendant 5 jours (J1-J5). Le contrôle positif du test est le 5-fluorouracile qui est administré dans les mêmes conditions. Le nombre d'animaux survivants est évalué au jour J 40. Un composé est considéré comme étant actif lorsque le rapport T/C est supérieur à 127 %.

Series [2] relates to leucémie L 1210. The experiment in a line: In vivo antitumour activity, L 1210 leukemia test. Conditions: for Nombre de survivants: survivors at J 30. The arrangement: species or system souris hybrides CDF₁.
From the text: as §1, §2, §3, §4, §5, §6, §7
b) Test de la leucémie L 1210 (GERAN et al., Cancer Chemother, 1972, 2, 07-57).
Les essais sont effectués avec des souris hybrides CDF₁ inoculées avec 10⁵ cellules leucémiques de la lignée L 1210. Le composé à tester est administré pendant 5 jours (J₁-J₅).Le contrôle positif du test est le 5-fluorouracile administré dans les mêmes conditions. Le nombre d'animaux survivants est évalué au jour J 30. Un composé est considéré comme étant actif lorsque le rapport T/C est supérieur ou égal à 125 %.

For series [3], the system named is mélanome B 16. Briefly: In vivo antitumour activity, B 16 melanoma test. The arrangement: species or system souris hybrides BDF₁. Conditions: B 16 melanoma, BDF₁ mice, 1 mg/kg i.p. J1-J9.
From the text: as §1, §2, §3, §4, §5, §6
Le produit est également considéré comme toxique lorsque la variation pondérale, exprimée en grammes et calculée par la formule : Poids moyen du lot mesuré au jour 5 -poids moyen du même lot au jour 1 est égale ou inférieure à - 4 g.
Les essais sont effectués avec des souris hybrides BDF₁ inoculées avec 0,5 ml d'un homogénat de mélanome B 16 réalisé à partir de 1 g de tumeur dans 10 ml de sérum physiologique. Le composé à tester est administré pendant 9 jours (J₁-J₉).Le contrôle positif du test est le Cis-Platine administré dans les mêmes conditions. Le nombre d'animaux survivants est évalué au jour J 60.

The subject of series [4] is souris consanguines DBA₂ saines. The experiment in a line: Acute toxicity, single intraperitoneal injection in healthy mice, mortality at day 7. Type of series: in vivo. Particulars: single i.p. injection, 50 mg/kg.
In series [5] the test system is lignée tumorale leucémie L 1210. The experiment in a line: In vitro cytotoxic activity on L 1210 leukemia cell culture (inhibition of cell proliferation). Type of series: cell-based. Conditions: Mus musculus, L1210; L 1210 culture in exponential growth, 37°C, after 48 hours of contact; read-out: ID 50 (the source's name). Here is the method: 1) In vitro : (PAOLETTI et al., Chem. Biol. Interaction, 1979, 25, 45-58).
L'activité cytotoxique des composés de l'invention a été évaluée par des essais in vitro. Ces essais consistent à ajouter des concentrations croissantes du composé à tester à une culture cellulaire de la lignée tumorale leucémie L 1210 en phase exponentielle de croissance. Les cellules sont incubées à 37°C dans une étuve à CO₂ et comptées toutes les 24 heures. Le calcul de l'ID₅₀ (concentration du produit exprimée en micromole 1⁻¹ qui inhibe la prolifération cellulaire à 50 p. 100) est effectuée après 48 heures de contact. Ainsi déterminées les ID₅₀ des composés de l'invention sont rassemblées dans le tableau ci-après.

[6] abbreviates: P 388, CDF 1 mice, 20 mg/kg i.p. J1-J5.
[7] abbreviates: L 1210, CDF₁ mice, 20 mg/kg i.p. J1-J5, 20 mg/kg.
[8] abbreviates: L 1210, CDF₁ mice, 20 mg/kg i.p. J1-J5, listed as 5 Fluoro-uracile, 20 mg/kg.
[9] abbreviates: L 1210, CDF₁ mice, 20 mg/kg i.p. J1-J5.
Setting [10] is: Mus musculus, P388, ip, P 388, CDF 1 mice, 5 mg/kg i.p. J1-J5, read-out: T/C %.
[11] abbreviates: Mus musculus, P388, ip, P 388, CDF 1 mice, 10 mg/kg i.p. J1-J5, read-out: T/C %.
The mark [12] stands for this setting: Mus musculus, P388, ip, P 388, CDF 1 mice, 20 mg/kg i.p. J1-J5, read-out: T/C %.
[13] abbreviates: P 388, CDF 1 mice, 5 mg/kg i.p. J1-J5.
Setting [14] is: P 388, CDF 1 mice, 10 mg/kg i.p. J1-J5.
[15] abbreviates: L 1210, CDF₁ mice, 5 mg/kg i.p. J1-J5.
Setting [16] is: L 1210, CDF₁ mice, 10 mg/kg i.p. J1-J5.
[17] abbreviates: L 1210, CDF₁ mice, 2,5 mg/kg i.p. J1-J5.

Turning to `O=c1[nH]cc(F)c(=O)[nH]1` [5 - Fluoro-uracile, 5-fluorouracile, reference compound], the Nombre de survivants in series [1] (setting [6]) and in series [2] (setting [9]) was 0 in each case. For the same compound, the “Jour médian de survie” value is 15,7 and 14,5 in series [2] (setting [7]); 15,5 in series [2] (setting [8]). Further, the T/C % is 191% and 183% in series [2] (setting [7]); 174% in series [2] (setting [8]).

Regarding `[NH2][Pt]([NH2])([Cl])[Cl]` [Cis-Platine, reference compound], in series [3] (1 mg/kg), the “Jour médian de survie” value was 39 and 37; the T/C % was 140% and 142% and 157%. Also, in series [3] (survivors at J 60), the Nombre de survivants was determined as 0.

Regarding `CCN(CC)CCCNc1nc2ccccc2c2c1c1cc(OC)ccc1n2C` [Dérivé N°1, (diéthylamino-3 propylamino)-6 méthoxy-8 méthyl-11 11-H indolo[3,2-c]quinoléine], in series [4], the “mortalité évaluée au septième jour après l'administration” value is given as “aucune mortalité”. Besides, the IC50 in series [5] turned out to be 0.35 µM. In series [1] (setting [10]), the response vs control in vivo at 5 mg/kg was 142%. The response vs control in vivo at 10 mg/kg in series [1] (setting [11]) amounted to 154%. The response vs control in vivo at 20 mg/kg in series [1] (setting [12]) is 142%. In addition, the Nombre de survivants in series [1] (setting [13]), in series [1] (setting [14]) and in series [1] (setting [6]) was 0 in each case. The results for the “Variation pondérale en g” value in series [1] (5 mg/kg), in series [1] (10 mg/kg) and in series [1] (20 mg/kg) were “- 0,4 g”, “- 0,7 g” and “- 1,2 g”, respectively.

Take `COc1ccc2c(c1)c1c(NCCCN(C)C)nc3ccccc3c1n2C` [Dérivé N°2, (diméthylamino-3 propylamino)-6 méthoxy-8 méthyl-11 11-H indolo[3,2-c]quinoléine]: the IC50 in series [5] was 0.4 µM.

Regarding `CN(C)CCCNc1nc2ccccc2c2c1c1cc(O)ccc1n2C` [Dérivé N°4, (diméthylamino-3 propylamino)-6 hydroxy-8 méthyl-11 11-H indolo[3,2-c]quinoléine], in series [5], the IC50 is 0.04 µM. For the same compound, the response vs control in vivo at 5 mg/kg in series [1] (setting [10]) is 133%. The response vs control in vivo at 10 mg/kg in series [1] (setting [11]) was 136%. Besides, the response vs control in vivo at 20 mg/kg in series [1] (setting [12]) stood at 137%. The response vs control in vivo at 40 mg/kg in series [1] (Mus musculus, P388, ip, P 388, CDF 1 mice, 40 mg/kg i.p. J1-J5, read-out: T/C %) came out at 65%. Besides, the response vs control in vivo at 2.5 mg/kg in series [1] (Mus musculus, P388, ip, P 388, CDF 1 mice, 2,5 mg/kg i.p. J1-J5, read-out: T/C %) was found to be 129%. The Nombre de survivants in series [1] (setting [13]) turned out to be 0; in series [1] (setting [14]) it was 0; in series [1] (setting [6]), 0; in series [1] (P 388, CDF 1 mice, 40 mg/kg i.p. J1-J5), 0; in series [1] (P 388, CDF 1 mice, 2,5 mg/kg i.p. J1-J5) it was 0; in series [2] (setting [15]), 0. Also, the Nombre de survivants in series [2] (setting [16]), in series [2] (setting [9]) and in series [2] (setting [17]) was 0 each time. Also, the “Variation pondérale en g” value in series [1] (5 mg/kg) is given as “+ 2,3 g”; in series [1] (10 mg/kg), “+ 1,3 g”; in series [1] (20 mg/kg), “+ 1,1 g”; in series [1] (40 mg/kg), “+ 3,8 g”. The “Jour médian de survie” value is 13,0 in series [2] (setting [15]), 11,25 in series [2] (setting [16]), 10,1 in series [2] (setting [9]) and 10,3 in series [2] (setting [17]). The T/C % in series [2] (setting [15]) was 158%; in series [2] (setting [16]), 137%; in series [2] (setting [9]) it was 123%; in series [2] (setting [17]), 126%.

In the case of `COc1ccc2[nH]c3c4ccccc4nc(NCCCN(C)C)c3c2c1` [Dérivé N°6, (diméthylamino-3 propylamino)-6 méthoxy-8 11-H indolo [3,2-c]quinoléine], in series [5], the IC50 was 0.8 µM.

Take `CCN(CC)CCNc1nc2ccccc2c2[nH]c3ccc(OC)cc3c12` [Dérivé N°7, (diéthylamino-2 éthylamino)-6 méthoxy-8 11-H indolo[3,2-c]quinoléine]: the IC50 in series [5] is 2.1 µM.

For the compound `COc1ccc2[nH]c3c4ccccc4nc(NCCCN4CCOCC4)c3c2c1` [Dérivé N°8, méthoxy-8 (morpholino-3 propylamino)-6 11-H indolo[3,2-c]quinoléine], the IC50 in series [5] was determined as 0.61 µM.

Consider `COc1ccc2[nH]c3c4ccccc4nc(NCCCN4CCCCC4)c3c2c1` [Dérivé N°9, méthoxy-8 (pipéridino-3 propylamino)-6 11-H indolo [3,2-c]quinoléine], for which, in series [5], the IC50 came to 0.64 µM.

On to `CCNCCCNc1nc2ccccc2c2[nH]c3ccc(OC)cc3c12` [Dérivé N°10, (éthylamino-3 propylamino)-6 méthoxy-8 11-H indolo [3,2-c]quinoléine], for which the IC50 in series [5] was 0.58 µM.

For the compound `CCN(CC)CCNc1nc2ccccc2c2[nH]c3ccc(O)cc3c12` [Dérivé N°13, (diéthylamino-2 éthylamino)-6 hydroxy-8 11-H indolo[3,2-c]quinoléine], the IC50 in series [5] came out at 2.6 µM.

These data come from patent publication EP0226508A1, “Indolo[3,2-c]quinoline derivatives, process for their preparation and their anti-tumour activity” (priority 1985, dated 1987).
